Results as given in US9605005B2, “Alkynyl alcohols and methods of use” (Genentech, Inc., priority 2013, dated 2017).

target: nuclear factor-kappa B (NF-kB)-inducing kinase (NIK) (Homo sapiens (Human), UniProt Q99558); assay: NIK enzyme inhibition assay (Transcreener ADP, NIK ADP-FP); type: biochemical; conditions: purified NIK 0.5 nM, 10 μM ATP, fluorescence polarization; read-out: NIK ADP-FP (Ki μM)
Sequence (Q99558 whole entry): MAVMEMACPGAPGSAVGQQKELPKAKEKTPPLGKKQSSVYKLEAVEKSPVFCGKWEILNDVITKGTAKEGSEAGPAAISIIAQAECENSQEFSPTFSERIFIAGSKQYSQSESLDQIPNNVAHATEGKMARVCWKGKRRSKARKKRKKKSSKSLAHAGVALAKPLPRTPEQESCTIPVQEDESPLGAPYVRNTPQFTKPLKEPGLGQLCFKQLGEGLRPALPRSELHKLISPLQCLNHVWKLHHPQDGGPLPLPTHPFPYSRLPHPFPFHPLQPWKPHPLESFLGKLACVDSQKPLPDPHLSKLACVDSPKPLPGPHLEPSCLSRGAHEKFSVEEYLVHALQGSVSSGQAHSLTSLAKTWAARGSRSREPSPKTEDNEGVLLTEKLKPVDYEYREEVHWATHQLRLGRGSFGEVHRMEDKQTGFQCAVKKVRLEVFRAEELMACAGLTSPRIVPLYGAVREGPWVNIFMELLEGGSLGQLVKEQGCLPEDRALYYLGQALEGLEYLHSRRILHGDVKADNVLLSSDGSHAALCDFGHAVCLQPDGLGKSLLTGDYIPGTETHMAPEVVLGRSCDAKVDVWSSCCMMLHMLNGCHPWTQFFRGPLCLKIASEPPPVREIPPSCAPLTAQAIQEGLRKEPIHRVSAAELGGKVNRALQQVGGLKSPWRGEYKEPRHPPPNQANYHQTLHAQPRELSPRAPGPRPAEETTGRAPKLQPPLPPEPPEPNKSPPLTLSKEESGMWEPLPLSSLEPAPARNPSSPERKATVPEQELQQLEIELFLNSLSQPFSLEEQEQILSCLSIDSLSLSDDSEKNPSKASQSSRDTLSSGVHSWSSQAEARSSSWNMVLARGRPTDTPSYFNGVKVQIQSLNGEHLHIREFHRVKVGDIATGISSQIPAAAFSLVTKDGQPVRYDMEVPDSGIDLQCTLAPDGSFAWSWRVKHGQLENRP

Question: For CN1CC[C@@](O)(C#Cc2cccc(-n3nc(C(N)=O)c4c3CCC[C@@H]4NC(=O)C3CC3)c2)C1=O [Compound 37, (4S)-4-(cyclopropanecarbo-nylamino)-1-[3-[2-[(3R)-3-hydroxy-1-methyl-2-oxo-pyrrolidin-3-yl]ethynyl]phen-yl]-4,5,6,7-tetrahydroindazole-3-carboxamide], which Ki is on record?
Answer: 193 nM

Question: How did the Ki turn out when CN1CC[C@@](O)(C#Cc2cccc(-n3nc(C(N)=O)c4c3CCCC4(F)F)c2)C1=O [Compound 24, 4,4-difluoro-1-[3-[2-[(3R)-3-hydroxy-1-methyl-2-oxo-pyrrolidin-3-yl]ethynyl]phe-nyl]-6,7-dihydro-5H-indazole-3-carboxamide] was run?
Answer: 7.62 nM

Question: For CN1CC[C@@](O)(C#Cc2ccnc(-n3nc(C(N)=O)c4c3CC(C)(C)[C@@H](O)C4)c2)C1=O [Compound 11, (5S)-5-hydroxy-1-[4-[2-[(3R)-3-hydroxy-1-methyl-2-oxo-pyrrolidin-3-yl]ethynyl]-2-pyridyl]-6,6-dimethyl-5,7-dihydro-4H-indazole-3-carboxamide], which Ki is on record?
Answer: 13.4 nM

Question: Which Ki does the source give for CNc1nc2c(s1)c(C(N)=O)nn2-c1cccc(C#C[C@]2(O)CCN(C)C2=O)c1 [Compound 196, 1-[3-[2-[(3R)-3-hydroxy-1-methyl-2-oxo-pyrrolidin-3-yl]ethynyl]phenyl]-5-(methylamino)pyrazolo[3,4-d] thiazole-3-carboxamide] here?
Answer: 0.05 nM

Question: CN1CC[C@@](O)(C#Cc2cccc(-n3nc(C(N)=O)c4c3CCC(=O)N4)c2)C1=O [Compound 180, 1-[3-[2-[(3R)-3-hydroxy-1-methyl-2-oxo-pyrrolidin-3-yl]ethynyl]phenyl]-5-oxo-6,7-dihydro-4H-pyrazolo [4,3-b]pyridine-3-carboxamide] was tested. Which Ki did it give?
Answer: 0.35 nM

Question: How did the Ki turn out when CN1CC[C@@](O)(C#Cc2cccc(-n3nc(C(N)=O)c4c3[C@@H](O)CC4)c2)C1=O [Compound 168, (6S)-6-hydroxy-1-[3-[2-[(3R)-3-hydroxy-1-methyl-2-oxo-pyrrolidin-3-yl]ethynyl]phenyl]-5,6-dihydro-4H-cyclo-penta[c]pyrazole-3-carbox-amide] was run?
Answer: 33.7 nM

Question: For CN1CC[C@@](O)(C#Cc2ccnc(-n3nc(C(N)=O)c4c3CCC[C@@H]4NC(=O)C3CC3)c2)C1=O [Compound 17, (4S)-4-(cyclopropanecarbo-nylamino)-1-[4-[2-[(3R)-3-hydroxy-1-methyl-2-oxo-pyrrolidin-3-yl]ethynyl]-2-pyridyl]-4,5,6,7-tetrahydroin-dazole-3-carboxamide], which Ki is on record?
Answer: 146 nM

Question: Which Ki does the source give for CN1CC[C@@](O)(C#Cc2ccnc(-n3nc(C(N)=O)c4c3CC(C)(C)[C@H](O)C4)c2)C1=O [Compound 9, (5R)-5-hydroxy-1-[4-[2-[(3R)-3-hydroxy-1-methyl-2-oxo-pyrrolidin-3-yl]ethynyl]-2-pyridyl]-6,6-dimethyl-5,7-dihydro-4H-indazole-3-carboxamide] here?
Answer: 33.2 nM

Question: For CN1CC[C@@](O)(C#Cc2cccc(-n3nc(C(N)=O)c4c3CCN(CC(C)(C)O)C4)c2)C1=O [Compound 40, 1-[3-[2-[(3R)-3-hydroxy-1-methyl-2-oxo-pyrrolidin-3-yl]ethynyl]phenyl]-5-(2-hy-droxy-2-methyl-propyl)-6,7-dihydro-4H-pyrazolo[4,3-c]pyridine-3-carboxamide], which Ki is on record?
Answer: 71 nM

Question: How did the Ki turn out when CN1CC[C@@](O)(C#Cc2cccc(-c3nc(C(N)=O)c4n3CCCC4)c2)C1=O [Compound 84, 3-[3-[2-[(3R)-3-hydroxy-1-methyl-2-oxo-pyrrolidin-3-yl]ethynyl]phenyl]-5,6,7,8-tetra-hydroimidazo[1,5-a]pyri-dine-1-carboxamide] was run?
Answer: 33.9 nM

Question: CC(=O)N1CCc2c(c(C(N)=O)nn2-c2cccc(C#C[C@]3(O)CCN(C)C3=O)c2)C1 [Compound 19, 5-acetyl-1-[3-[2-[(3R)-3-hy-droxy-1-methyl-2-oxo-pyrroli-din-3-yl]ethynyl]phenyl]-6,7-dihydro-4H-pyrazolo[4,3-c]pyridine-3-carboxamide] was tested. Which Ki did it give?
Answer: 10.2 nM

Question: Which Ki does the source give for Cc1nc([C@](C)(O)C#Cc2cccc(-n3nc(C(N)=O)c4ccccc43)c2)no1 [Compound 29, 1-[3-[(3R)-3-hydroxy-3-(5-methyl-1,2,4-oxadiazol-3-yl)but-1-ynyl]phenyl]indazole-3-carboxamide] here?
Answer: 36.7 nM

Question: Which Ki does the source give for Cc1sc(-c2cc(C#C[C@]3(O)CCN(C)C3=O)ccc2F)nc1C(N)=O [Compound 197, 2-[2-fluoro-5-[2-[(3R)-3-hydroxy-1-methyl-2-oxo-pyrrolidin-3-yl]ethynyl]phenyl]-5-methyl-thiazole-4-carboxamide] here?
Answer: 0.053 nM

Question: CN1CC[C@@](O)(C#Cc2cccc(-n3nc(C(N)=O)c4[nH]c(=O)ccc43)c2)C1=O [Compound 108, 1-[3-[2-[(3R)-3-hydroxy-1-methyl-2-oxo-pyrrolidin-3-yl]ethynyl]phenyl]-5-oxo-4H-pyrazolo[4,3-b]pyridine-3-carboxamide] was tested. Which Ki did it give?
Answer: 0.24 nM

Question: For CN1CC[C@@](O)(C#Cc2cccc(-n3nc(C(N)=O)c4c3CCC[C@H]4NC(=O)C3CC3)c2)C1=O [Compound 32, (4R)-4-(cyclopropanecarbonyl-amino)-1-[3-[2-[(3R)-3-hydroxy-1-methyl-2-oxo-pyrroli-din-3-yl]ethynyl]phenyl]-4,5,6,7-tetrahydroindazole-3-carboxamide], which Ki is on record?
Answer: 1040 nM

Question: With CN1CC[C@@](O)(C#Cc2cccc(-c3nc(C(N)=O)n4c3NCC4)c2)C1=O [Compound 87, 7-[3-[2-[(3R)-3-hydroxy-1-methyl-2-oxo-pyrrolidin-3-yl]ethynyl]phenyl]-2,3-dihy-dro-1H-imidazo[1,5-a]imida-zole-5-carboxamide] as the compound, how does the Ki read?
Answer: 20.4 nM

Question: How did the Ki turn out when CN1CC[C@@](O)(C#Cc2ccnc(-n3nc(C(N)=O)c4c3CC(C)(C)CC4)c2)C1=O [Compound 4, 1-[4-[2-[(3R)-3-hydroxy-1-methyl-2-oxo-pyrrolidin-3-yl]ethynyl]-2-pyridyl]-6,6-dimethyl-5,7-dihydro-4H-inda-zole-3-carboxamide] was run?
Answer: 2.92 nM

Question: Which Ki does the source give for CN1CC[C@@](O)(C#Cc2cccc(-n3nc(C(N)=O)c4cnc(N5CC[C@@H](O)C5)cc43)c2)C1=O [Compound 138, 1-[3-[2-[(3R)-3-hydroxy-1-methyl-2-oxo-pyrrolidin-3-yl]ethynyl]phenyl]-6-[(3R)-3-hydroxypyrrolidin-1-yl]pyra-zolo[4,3-c]pyridine-3-carbox-amide] here?
Answer: 0.19 nM

Question: How did the Ki turn out when COC1CN(c2cnc3c(c2)c(C(N)=O)nn3-c2cccc(C#C[C@]3(O)CCN(C)C3=O)c2)C1 [Compound 183, 1-[3-[2-[(3R)-3-hydroxy-1-methyl-2-oxo-pyrrolidin-3-yl]ethynyl]phenyl]-5-(3-methoxyazetidin-1-yl) pyrazolo[3,4-b]pyridine-3-carboxamide] was run?
Answer: 0.19 nM

Question: Cc1cc([C@](C)(O)C#Cc2ccnc(-n3nc(C(N)=O)c(Cl)c3C)c2)no1 [Compound 82, 4-chloro-1-[4-[(3R)-3-hydroxy-3-(5-methylisoxazol-3-yl)but-1-ynyl]-2-pyridyl]-5-methyl-pyrazole-3-carboxamide] was tested. Which Ki did it give?
Answer: 99.1 nM
